This test concerns the target T1, InvD1L (invertebrate specific D1-like dopamine receptor) (Ixodes scapularis, UniProt A0ACM8DGL0).
T1 sequence (A0ACM8DGL0 1-457): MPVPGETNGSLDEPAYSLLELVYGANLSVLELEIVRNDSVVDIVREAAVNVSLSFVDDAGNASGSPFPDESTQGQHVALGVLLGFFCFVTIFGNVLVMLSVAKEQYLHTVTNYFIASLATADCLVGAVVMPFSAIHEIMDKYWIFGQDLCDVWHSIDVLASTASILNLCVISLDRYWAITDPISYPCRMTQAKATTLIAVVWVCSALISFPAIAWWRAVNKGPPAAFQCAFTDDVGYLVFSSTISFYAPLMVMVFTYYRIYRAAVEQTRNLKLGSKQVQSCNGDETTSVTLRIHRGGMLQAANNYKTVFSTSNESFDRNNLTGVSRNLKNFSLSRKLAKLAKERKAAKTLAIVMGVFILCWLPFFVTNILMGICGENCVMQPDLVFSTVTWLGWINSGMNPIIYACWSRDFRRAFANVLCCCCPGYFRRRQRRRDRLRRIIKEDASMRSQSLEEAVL
The experiment in a line: cell-based.

In general, EC50 refers to the concentration giving half of the maximal effect.

Compound `NCCc1ccc(O)c(O)c1` [DA, dopamine] returned an EC50 of 1340 nM.

The values are drawn from paper PMC3997621 (The Journal of comparative neurology, 2014).
